# Assay results published in US7375246B2, “Sulfhydral containing compounds and methods of using the same” (Regenesis Bioremediation Products Inc., priority 2003, dated 2008).
# How the values were obtained:
# [1] = Example E: Aquifer Simulation Vessel (ASV), chromated copper arsenate, copper; settings: for Copper concentration in aqueous phase: initial 4.2
# Protocol: (§1) A tube 6 foot long and 6 inches in diameter was packed with soil. These tubes simulate the flow in an aquifer below ground and are referred to as Aquifer Simulation Vessels (ASV). The ASV has sample ports along the bottom at every 6-inch interval to allow sampling as water flows through the tube. Contaminated water is allowed to flow through the tube. As the water flows through the tube, the water within the space pockets of the soil is tested and when the soil with the tube is fully contaminated the flow was stopped. The soil pockets (pores) were full of contaminants from the water. At that point either ferrous cysteinate or sorbitol hexacysteinate was injected just ahead of the first port with no flow in the system.
# (§2) A separate tube was used for each of the two materials tested.
# (§3) Initially the soil pockets (pores) were filled with this solution as described. Either ferrous cysteinate or sorbitol hexacysteinate was injected into the soil containing tube. The concentration of contaminants at each sample port was measured over a 30 day period. The system was then flushed with fresh water to determine if the removed metals are “redistributed” or “redissolved” in the water (i.e. so called “rebound”). This measure determined the ability of the compounds to permanently remove the contaminants.
# [2] = Example E: Aquifer Simulation Vessel (ASV), chromated copper arsenate, arsenic; settings: for Arsenic concentration in aqueous phase: initial 25.7
# Protocol: as §1, §2, §3
# [3] = Example D: two-flask liquid/soil system with chromated copper arsenate, arsenic
# Protocol: (§4) A system which had two connected 250 ml flasks, one with liquid and soil and the other with a reservoir of liquid, was used. The liquid flowed between the 2 flasks. Samples were taken from the flask without the soil to determine the amount of Cu, As and Cr present in the aqueous phase. The liquid in the flask without soil was sampled periodically and the Cu, Cr and As content measured by Atomic Absorption Spectroscopy. A unimolar ratio of copper chromate and copper arsenate was used as being representative of chromated copper arsenate. The level of contamination was selected so that the As component was about 30 mg/L. After the system was set up the As component was determined to be 28.3 mg/L. The Cu and Cr were approximately 25 mg/L and 15.5 mg/L, respectively.
# (§5) Ferrous cysteinate and sorbitol tricysteinate were both used in this system.
# [4] = Example C: reduction of As in arsenate solution in a flask, atomic absorption
# Protocol: 10.02 grams of ferrous cysteinate synthesized as in 1.4 were added to a 250 ml. flask which contained 150 ml of 32 ppm of As initially added as arsenic trioxide. The 32-ppm solution of As was prepared by using 0.08 grams of arsenic trioxide to which 3.0 grams of concentrated hydrochloric acid was added. This prepared the soluble arsenate. The solution was heated and diluted to one liter with distilled water. The As concentration was measured over time using atomic absorption.
# [5] = Example D: two-flask liquid/soil system with chromated copper arsenate, copper
# Protocol: as §4, §5
# [6] = Example D: two-flask liquid/soil system with chromated copper arsenate, chromium
# Protocol: as §4, §5
# [7] = Example E: Aquifer Simulation Vessel (ASV), chromated copper arsenate, chromium; settings: for Chromium concentration in aqueous phase / Cr concentration: initial 15
# Protocol: as §1, §2, §3
substance,measurement,setting,value
ferrous cysteinate [FeC],remediation of Cu in ASV,[1],effective remediation
same,Copper concentration in aqueous phase,"[1]; Port 1, Day 5",0.3 mg/L
same,Copper concentration in aqueous phase,"[1]; Port 1, Day 8",0.2 mg/L
same,Copper concentration in aqueous phase,"[1]; Port 1, Day 13",0.1 mg/L
same,Copper concentration in aqueous phase,"[1]; Port 1, Day 16",0.1 mg/L
same,Copper concentration in aqueous phase,"[1]; Port 1, Day 20",0.0 mg/L
same,Copper concentration in aqueous phase,"[1]; Port 1, Day 22",0.1 mg/L
same,Copper concentration in aqueous phase,"[1]; Port 1, Day 27",0.0 mg/L
same,Copper concentration in aqueous phase,"[1]; Port 5, Day 5",0.3 mg/L
same,Copper concentration in aqueous phase,"[1]; Port 5, Day 8",0.2 mg/L
same,Copper concentration in aqueous phase,"[1]; Port 5, Day 13",0.1 mg/L
same,Copper concentration in aqueous phase,"[1]; Port 5, Day 16",0.0 mg/L
same,Copper concentration in aqueous phase,"[1]; Port 5, Day 20",0.0 mg/L
same,Copper concentration in aqueous phase,"[1]; Port 5, Day 22",0.0 mg/L
same,Copper concentration in aqueous phase,"[1]; Port 5, Day 27",0.0 mg/L
same,Copper concentration in aqueous phase,"[1]; Port 10, Day 5",0.1 mg/L
same,Copper concentration in aqueous phase,"[1]; Port 10, Day 8",0.1 mg/L
same,Copper concentration in aqueous phase,"[1]; Port 10, Day 13",0.0 mg/L
same,Copper concentration in aqueous phase,"[1]; Port 10, Day 16",0.0 mg/L
same,Copper concentration in aqueous phase,"[1]; Port 10, Day 20",0.0 mg/L
same,Copper concentration in aqueous phase,"[1]; Port 10, Day 22",0.0 mg/L
same,Copper concentration in aqueous phase,"[1]; Port 10, Day 27",0.0 mg/L
same,remediation of As in ASV,[2],effective remediation
same,Arsenic concentration in aqueous phase,"[2]; Port 1, Day 5",25.8 mg/L
same,Arsenic concentration in aqueous phase,"[2]; Port 1, Day 8",10.9 mg/L
same,Arsenic concentration in aqueous phase,"[2]; Port 1, Day 13",6.8 mg/L
same,Arsenic concentration in aqueous phase,"[2]; Port 1, Day 16",3.6 mg/L
same,Arsenic concentration in aqueous phase,"[2]; Port 1, Day 20",3.3 mg/L
same,Arsenic concentration in aqueous phase,"[2]; Port 1, Day 22",1.1 mg/L
same,Arsenic concentration in aqueous phase,"[2]; Port 1, Day 27",0.6 mg/L
same,Arsenic concentration in aqueous phase,"[2]; Port 5, Day 5",23.1 mg/L
same,Arsenic concentration in aqueous phase,"[2]; Port 5, Day 8",9.8 mg/L
same,Arsenic concentration in aqueous phase,"[2]; Port 5, Day 13",6.8 mg/L
same,Arsenic concentration in aqueous phase,"[2]; Port 5, Day 16",3.5 mg/L
same,Arsenic concentration in aqueous phase,"[2]; Port 5, Day 20",3.0 mg/L
same,Arsenic concentration in aqueous phase,"[2]; Port 5, Day 22",0.9 mg/L
same,Arsenic concentration in aqueous phase,"[2]; Port 5, Day 27",0.5 mg/L
same,Arsenic concentration in aqueous phase,"[2]; Port 10, Day 5",23.9 mg/L
same,Arsenic concentration in aqueous phase,"[2]; Port 10, Day 8",7.7 mg/L
same,Arsenic concentration in aqueous phase,"[2]; Port 10, Day 13",5.4 mg/L
same,Arsenic concentration in aqueous phase,"[2]; Port 10, Day 16",2.8 mg/L
same,Arsenic concentration in aqueous phase,"[2]; Port 10, Day 20",2.9 mg/L
same,Arsenic concentration in aqueous phase,"[2]; Port 10, Day 22",0.8 mg/L
same,Arsenic concentration in aqueous phase,"[2]; Port 10, Day 27",0.5 mg/L
same,remediation of arsenic in combined solution,[3],remediated
same,time in which the concentration of As was reduced by half,[4]; 10.02 grams in 150 ml of 32 ppm As,less than 45 hours
same,concentration of As after treatment,"[4]; from 32 ppm, in less than 45 hours",less than 15 ppm
same,remediation of copper in combined solution,[5],remediated
same,remediation of chromium in combined solution,[6],remediated
same,remediation of Cr in ASV,[7],effective remediation
same,Chromium concentration in aqueous phase,"[7]; Port 1, Day 8",5.8 mg/L
same,Chromium concentration in aqueous phase,"[7]; Port 1, Day 13",3.4 mg/L
same,Chromium concentration in aqueous phase,"[7]; Port 1, Day 16",1.4 mg/L
same,Chromium concentration in aqueous phase,"[7]; Port 1, Day 20",0.7 mg/L
same,Chromium concentration in aqueous phase,"[7]; Port 1, Day 22",1.1 mg/L
same,Chromium concentration in aqueous phase,"[7]; Port 1, Day 27",1.0 mg/L
same,Chromium concentration in aqueous phase,"[7]; Port 5, Day 8",4.8 mg/L
same,Chromium concentration in aqueous phase,"[7]; Port 5, Day 13",1.3 mg/L
same,Chromium concentration in aqueous phase,"[7]; Port 5, Day 16",0.9 mg/L
same,Chromium concentration in aqueous phase,"[7]; Port 5, Day 20",0.6 mg/L
same,Chromium concentration in aqueous phase,"[7]; Port 5, Day 22",1.0 mg/L
same,Chromium concentration in aqueous phase,"[7]; Port 5, Day 27",0.9 mg/L
same,Chromium concentration in aqueous phase,"[7]; Port 10, Day 8",5.2 mg/L
same,Chromium concentration in aqueous phase,"[7]; Port 10, Day 13",0.8 mg/L
same,Chromium concentration in aqueous phase,"[7]; Port 10, Day 16",0.6 mg/L
same,Chromium concentration in aqueous phase,"[7]; Port 10, Day 20",0.5 mg/L
same,Chromium concentration in aqueous phase,"[7]; Port 10, Day 22",0.9 mg/L
same,Chromium concentration in aqueous phase,"[7]; Port 10, Day 27",0.7 mg/L
same,Cr concentration,"[7]; port 1, day 30",0.7 mg/L
same,Cr concentration,"[7]; port 5, day 30",0.4 mg/L
same,Cr concentration,"[7]; port 10, day 30",0.4 mg/L
sorbitol tricysteinate,remediation of arsenic in combined solution,[3],remediated
same,remediation of copper in combined solution,[5],remediated
same,remediation of chromium in combined solution,[6],remediated
